The record followed here is patent US10173991B2, “Sulfone amide linked benzothiazole inhibitors of endothelial lipase” (BRISTOL-MYERS SQUIBB COMPANY, priority 2014, dated 2019).

Sequence of Endothelial lipase (EL) (Q9Y5X9 21-500): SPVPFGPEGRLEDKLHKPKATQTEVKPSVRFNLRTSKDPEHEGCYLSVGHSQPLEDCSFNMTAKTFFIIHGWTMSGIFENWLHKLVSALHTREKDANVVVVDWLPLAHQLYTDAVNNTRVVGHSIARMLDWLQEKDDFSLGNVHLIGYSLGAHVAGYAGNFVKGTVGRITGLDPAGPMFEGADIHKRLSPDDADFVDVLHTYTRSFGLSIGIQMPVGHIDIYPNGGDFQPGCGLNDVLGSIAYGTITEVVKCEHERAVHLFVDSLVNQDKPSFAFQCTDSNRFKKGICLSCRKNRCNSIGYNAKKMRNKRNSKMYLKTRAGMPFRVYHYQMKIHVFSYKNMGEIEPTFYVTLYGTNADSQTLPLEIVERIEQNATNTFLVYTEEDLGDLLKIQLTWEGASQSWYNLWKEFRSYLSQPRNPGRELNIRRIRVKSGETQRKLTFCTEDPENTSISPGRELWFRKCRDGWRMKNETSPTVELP

The first experiment concerns the target Endothelial lipase (EL) (Homo sapiens (Human), UniProt Q9Y5X9). The experiment can be described thus: Endothelial lipase (EL) enzymatic assay with fluorescent substrate A10070 in DMPG vesicles. It is filed as biochemical.
Details: not given
In a few lines:
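Vesicles prepared: A10070 dried with DMPG, resuspended in HEPES pH 8.0/NaCl/EDTA, sonicated on ice. Enzyme incubated with compound 30 min at 37° C. Reaction started with 1:10 diluted vesicles. Fluorescence (490/530 nm) followed 60 min; slope from 300–900 secs gives rate.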
For `CC(C)S(=O)(=O)C(C(=O)NCC(=O)NC1CC1)c1nc2c(F)cc(-c3cnc(-c4ccccc4)nc3)cc2s1` (stereo not drawn) [Example 282, N-[(cyclopropyl-carbamoyl)methyl]-2-[4-fluoro-6-(2-phenylpyrimidin-5-yl)-1,3-benzothiazol-2-yl]-2-(propane-2-sulfonyl)acetamide], inhibition was half-maximal at 22 nM (IC50).
Same read-out and setting: to `Cn1ccc(-c2ccc3nc(C(C(=O)NCC(=O)NC4CC4)S(=O)(=O)c4ccc(F)cc4)sc3c2)cc1=O` (stereo not drawn) [Example 458, N-[(cyclopropyl-carbamoyl)methyl]-2-(4-fluorobenzene-sulfonyl)-2-[6-(1-methyl-2-oxo-1,2-dihydropyridin-4-yl)-1,3-benzothiazol-2-yl]acetamide] belongs 32 nM.
The same measure, in the same setting: the value for `Cc1cc(-c2cc3sc(C(C(=O)NCC(=O)NC4CC4)S(=O)(=O)C(C)C)nc3cc2C)cnn1` (stereo not drawn) [Example 257, N-[(cyclopropyl-carbamoyl)methyl]-2-[5-methyl-6-(6-methylpyridazin-4-yl)-1,3-benzothiazol-2-yl]-2-(propane-2-sulfonyl) acetamide] was 11 nM; that for `COc1ncc(-c2cc3sc(C(C(=O)NCC(=O)NC4CC4)S(=O)(=O)C(C)C)nc3cc2C)cc1F` (stereo not drawn) [Example 211, N-[(cyclopropyl-carbamoyl)methyl]-2-[6-(5-fluoro-6-methoxypyridin-3-yl)-5-methyl-1,3-benzothiazol-2-yl]-2-(propane-2-sulfonyl) acetamide] was 14 nM.
On the same count and under the same terms, to `Cn1ccc(-c2ccc3nc(C(C(=O)NCC(=O)NC4CC4)S(=O)(=O)N4CCOCC4)sc3c2)cc1=O` (stereo not drawn) [Example 485, N-[(cyclopropyl-carbamoyl)methyl]-2-[6-(1-methyl-2-oxo-1,2-dihydropyridin-4-yl)-1,3-benzothiazol-2-yl]-2-(morpholine-4-sulfonyl)acetamide] belongs 57 nM.
On to `COCCS(=O)(=O)C(C(=O)NCC(=O)NCCOCc1ccccc1)c1nc2ccc(-c3ccc(F)nc3)cc2s1` (stereo not drawn) [Example 377, N-({[2-(benzyloxy)ethyl]carbamoyl}methyl)-2-[6-(6-fluoropyridin-3-yl)-1,3-benzothiazol-2-yl]-2-(2-methoxyethane-sulfonyl)acetamide], for which inhibition was half-maximal at 1 nM (IC50).
The same measure, in the same setting: the value for `COCCS(=O)(=O)C(C(=O)NCC(=O)NC1CC1)c1nc2c(F)cc(-c3ccc(C(=O)N4CCOCC4)cc3)cc2s1` (stereo not drawn) [Example 208, N-[(cyclopropyl-carbamoyl)methyl]-2-{4-fluoro-6-[4-(morpholine-4-carbonyl)phenyl]-1,3-benzothiazol-2-yl}-2-(2-methoxyethane-sulfonyl) acetamide] was 11 nM; that for `COC(=O)Nc1cccc(-c2ccc3nc(C(C(=O)NCC(=O)NC4CC4)S(=O)(=O)Cc4cccc(C#N)c4)sc3c2)c1` (stereo not drawn) [Example 278, methyl N-(3-{2-[(3-cyanophenyl)methanesulfonyl ({[(cyclopropyl-carbamoyl)methyl]carbamoyl})methyl]-1,3-benzothiazol-6-yl}phenyl)carbamate] was 9 nM; that for `CN1C(=O)Cc2cc(-c3cc4sc(C(C(=O)NCC(=O)NC5CC5)S(C)(=O)=O)nc4cc3F)ccc21` (stereo not drawn) [Example 374, N-[(cyclopropyl-carbamoyl)methyl]-2-[5-fluoro-6-(1-methyl-2-oxo-2,3-dihydro-1H-indol-5-yl)-1,3-benzothiazol-2-yl]-2-methanesulfonyl-acetamide] was 9 nM.
Same read-out and setting: the value for `CS(=O)(=O)C(C(=O)NCC(=O)NC1CC1)c1nc2c(F)c(-c3ccc(NC(=O)OCc4ccccc4)cc3)ccc2s1` (stereo not drawn) [Example 127, benzyl N-{4-[2-({[(cyclopropyl-carbamoyl)methyl]carbamoyl} (methanesulfonyl)methyl)-4-fluoro-1,3-benzothiazol-5-yl]phenyl} carbamate] was 3 nM.
`Cc1ccc(-c2cc3nc(C(C(=O)NCC(=O)NC4CC4)S(=O)(=O)C(C)C)sc3cc2F)cn1` (stereo not drawn) [Example 262, N-[(cyclopropyl-carbamoyl)methyl]-2-[6-fluoro-5-(6-methylpyridin-3-yl)-1,3-benzothiazol-2-yl]-2-(propane-2-sulfonyl)acetamide] gave an IC50 of 10 nM.
`Cn1cnc2ccc(-c3cc4sc(C(C(=O)NCC(=O)NC5CC5)S(C)(=O)=O)nc4cc3F)cc21` (stereo not drawn) [Example 369, N-[(cyclopropyl-carbamoyl)methyl]-2-[5-fluoro-6-(1-methyl-1H-1,3-benzodiazol-6-yl)-1,3-benzothiazol-2-yl]-2-methanesulfonyl-acetamide] registered an IC50 of 16 nM.
`COCCS(=O)(=O)C(C(=O)NCC(=O)NC1CC1)c1nc2cc(-c3ccc(F)nc3)ccc2s1` (stereo not drawn) [Example 385, N-[(cyclopropyl-carbamoyl)methyl]-2-[5-(6-fluoropyridin-3-yl)-1,3-benzothiazol-2-yl]-2-(2-methoxyethane-sulfonyl)acetamide] registered an IC50 of 13 nM.
`COCCS(=O)(=O)C(C(=O)NCC(=O)NC1CC1)c1nc2cc(-c3cccc(-c4cc[nH]n4)c3)c(F)cc2s1` (stereo not drawn) [Example 129, N-[(cyclopropyl-carbamoyl)methyl]-2-{6-fluoro-5-[3-(1H-pyrazol-3-yl)phenyl]-1,3-benzothiazol-2-yl}-2-(2-methoxyethane-sulfonyl) acetamide] returned an IC50 of 12 nM.
On the same count and under the same terms, the value for `COCCS(=O)(=O)C(C(=O)NCC(=O)NC1CC1)c1nc2cc(C)c(-c3cnnc(C)c3)cc2s1` (stereo not drawn) [Example 186, N-[(cyclopropyl-carbamoyl)methyl]-2-(2-methoxyethane-sulfonyl)-2-[5-methyl-6-(6-methylpyridazin-4-yl)-1,3-benzothiazol-2-yl]acetamide] was 40 nM; that for `CC(C)S(=O)(=O)C(C(=O)NCC(=O)NC1CC1)c1nc2cc(F)c(-c3cccc(NC(=O)OCc4ccccc4)c3)cc2s1` (stereo not drawn) [Example 557, benzyl N-{3-[2-({[(cyclopropyl-carbamoyl)methyl]carbamoyl} (propane-2-sulfonyl)methyl)-5-fluoro-1,3-benzothiazol-6-yl]phenyl}carbamate] was 7 nM; that for `CC(C)S(=O)(=O)C(C(=O)NCC(=O)NC1CC1)c1nc2c(F)cc(-c3ccc4cnn(C)c4c3)cc2s1` (stereo not drawn) [Example 281, N-[(cyclopropyl-carbamoyl)methyl]-2-[4-fluoro-6-(1-methyl-1H-indazol-6-yl)-1,3-benzothiazol-2-yl]-2-(propane-2-sulfonyl)acetamide] was 9 nM.
The same measure, in the same setting: the value for `O=C(CNC(=O)C(c1nc2cc(-c3ccc(NC(=O)OCc4ccccc4)cc3)c(F)cc2s1)S(=O)(=O)C1CC1)NC1CC1` (stereo not drawn) [Example 11, benzyl N-(4-{2-[(cyclopropane-sulfonyl) ({[(cyclopropyl-carbamoyl)methyl]carbamoyl})methyl]6-fluoro-1,3-benzothiazol-5-yl}phenyl) carbamate] was 1 nM; that for `O=C(CNC(=O)C(c1nc2cc(F)c(-c3ccc(NC(=O)OCc4ccccn4)cc3)cc2s1)S(=O)(=O)CCC(F)(F)F)NC1CC1` (stereo not drawn) [Example 520, pyridin-2-ylmethyl N-{4-[2-({[(cyclopropyl-carbamoyl)methyl]carbamoyl}(3,3,3-trifluoropropane-sulfonyl)methyl)-5-fluoro-1,3-benzothiazol-6-yl]phenyl}carbamate] was 2 nM; that for `COCCS(=O)(=O)C(C(=O)NCC(=O)NC1CC1)c1nc2ccc(-c3ccc(C(=O)NC(C)(C)COC)cc3)cc2s1` (stereo not drawn) [Example 561, 4-[2-({[(cyclopropyl-carbamoyl)methyl]carbamoyl}(2-methoxyethane-sulfonyl)methyl)-1,3-benzothiazol-6-yl]-N-(1-methoxy-2-methylpropan-2-yl)benzamide] was 3 nM.
`COCCS(=O)(=O)C(C(=O)NCC(=O)NC1CC1)c1nc2ccc(-c3ccc(F)nc3F)cc2s1` (stereo not drawn) [Example 302, N-[(cyclopropyl-carbamoyl)methyl]-2-[6-(2,6-difluoropyridin-3-yl)-1,3-benzothiazol-2-yl]-2-(2-methoxyethane-sulfonyl)acetamide] had an IC50 of 160 nM.
Same read-out and setting: the value for `CC(C)OCCNC(=O)CNC(=O)C(c1nc2cc(-c3ccc(F)nc3)c(F)cc2s1)S(C)(=O)=O` (stereo not drawn) [Example 360, 2-[6-fluoro-5-(6-fluoropyridin-3-yl)-1,3-benzothiazol-2-yl]-2-methanesulfonyl-N-({[2-(propan-2-yloxy)ethyl]carbamoyl}methyl)acetamide] was 21 nM.
In turn, `CS(=O)(=O)C(C(=O)NCC(=O)NC1CC1)c1nc2cc(F)c(-c3ccc(C(=O)NCCC#N)cc3)cc2s1` (stereo not drawn) [Example 41, N-(2-cyanoethyl)-4-[2-({[(cyclopropyl-carbamoyl)methyl]carbamoyl} (methanesulfonyl)methyl)-5-fluoro-1,3-benzothiazol-6-yl]benzamide] showed a half-inhibitory concentration (IC50) of 5 nM.

Staying with this experiment, now noted: EL from conditioned media of HT-1080 cells; 30 min preincubation at 37° C.
Take `O=C(CCc1ccccc1)Nc1ccc(-c2cc3sc(C(C(=O)NCC(=O)NC4CC4)S(=O)(=O)CCC(F)(F)F)nc3cc2F)cc1` (stereo not drawn) [Example 575, N-{4-[2-({[(Cyclopropylcarbamoyl)methyl]carbamoyl}(3,3,3-trifluoropropanesulfonyl)methyl)-5-fluoro-1,3-benzothiazol-6-yl]phenyl}-3-phenylpropanamide]: inhibition was half-maximal at 0.9 nM (IC50).
Turning to `CC(C)OCCNC(=O)CNC(=O)C(c1nc2ccc(-c3ccc4c(c3)CNC4=O)cc2s1)S(C)(=O)=O` (stereo not drawn) [Example 287, N-(2-((2-Isopropoxyethyl)amino)-2-oxoethyl)-2-(methylsulfonyl)-2-(6-(1-oxoisoindolin-5-yl)benzo[d]thiazol-2-yl)acetamide], the midpoint of inhibition, the IC50, lay at 2.9 nM.
In turn, `CS(=O)(=O)C(C(=O)NCC(=O)NC1CC1)c1nc2cc(F)c(-c3ccc(-n4ccnc4)cc3)cc2s1` (stereo not drawn) [Example 579, N-[(Cyclopropylcarbamoyl)methyl]-2-{5-fluoro-6-[4-(1H-imidazol-1-yl)phenyl]-1,3-benzothiazol-2-yl}-2-methanesulfonylacetamide] registered an IC50 of 6 nM.
As for `COCCS(=O)(=O)C(C(=O)NCC(=O)NC1CC1)c1nc2ccc(-c3ccnc(O)c3F)cc2s1` (stereo not drawn) [Example 598, N-(2-(Cyclopropylamino)-2-oxoethyl)-2-(6-(3-fluoro-2-hydroxypyridin-4-yl)benzo[d]thiazol-2-yl)-2-((2-methoxyethyl)sulfonyl)acetamide], the IC50 came out at 101 nM.

By IC50 is commonly meant the concentration that inhibits the measured activity by half. A lower IC50 goes with greater potency.
